These results are taken from patent US12102648B2, “Orally-bioavailable nucleoside analogs” (priority 2021, dated 2024).

By Papp A→B is commonly meant how fast a substance crosses the layer from the apical side. Usually Papp B→A stands for the apparent permeability from the basolateral to the apical side of a cell layer.

Where two headings read alike, the source gives them in different places.

The data set is described as follows: in vitro. As to conditions: human. In kind it is in vitro ADME. As for the experimental part: The bidirectional permeability of compounds across the Caco-2 cell monolayer was assessed. The Caco-2 model is a widely used in vitro model for small intestinal absorption and potential for efflux.
Cell culture. Caco-2 cells were grown in DMEM supplemented with 10% fetal bovine serum (FBS), 1% Penicillin-Streptomycin and 1% MEM NEAA. The cells were incubated at 37° C., 5% CO2/95% air and saturated humidity. After reaching 80-90% confluency, the cells were gently detached with trypsin. Cells at passage 39 were seeded on the 24-well BD insert system at the density of 8×10^4 cells/cm^2 and cultured for 19 days with medium changed every 2-3 days. Measure the transepithelial electrical resistance (TEER) value of each well. The wells can be used only when their TEER values are greater than 600 Ohms/cm^2.
Transport assay. After removing the cell culture medium from the 24-well insert plate, the cells were rinsed with warm transport buffer. Appropriate dosing and receiving solutions were applied to the donor and receiver chambers to initiate the transport assay in apical to basolateral (A to B) or basolateral to apical (B to A) directions ([…] for apical and basolateral wells, respectively). Duplicate wells in each direction were used for the test compound and control compound. The plate was incubated in CO2 incubator at 37° C., with 5% CO2/95% air and saturated humidity without shaking. The sample after 10-minute incubation was used as the T0 sample, and the sample after 90-minute incubation was used as the T90 sample. To and T90 samples were collected from the donor and receiver side of each well at the designed timepoint, mixed with the transport buffer and acetonitrile/MeOH (1:1, v/v) and the internal standard for LC/MS/MS analysis. All samples were vortexed and centrifuged at 4000 rpm at 4° C. for 15 minutes, diluted with pure water and stored at 4° C. before bioanalysis by LC/MS/MS.
Sample analysis. The concentrations of test compounds and control compounds in Caco-2 cells were quantitatively determined by LC/MS/MS method after protein precipitation.
Calculations. The apparent permeability (Papp, cm/s), efflux ratio (ER) and recovery parameters were calculated for Caco-2 drug transport assay using the following equations:
[formula] [formula] where VR is the solution volume in the receiver chamber (0.4 mL on the apical side, 1.2 mL on the basolateral side); Area is the surface area for the insert membrane, i.e., 0.3 cm^2 for the area of the monolayer; Time is incubation time, expressed in seconds, i.e., 5400 s (90 min) for the current experiment; Co is the initial concentration of test compound or peak area ratio of control compounds in the donor chamber (μM); VD is the volume in the donor chambers (0.4 mL on the apical side, 1.2 mL on the basolateral side); CD and CR are the final concentrations of test compounds or peak area ratio of control compounds in donor and receiver chambers, respectively.
Compounds with Papp<1.0 are classified as low permeability, Papp between 1-10 are classified as medium permeability, and Papp≥10 are classified as high permeability. An efflux ratio (ER)>2 indicates the compounds are potential substrates for intestinal cell efflux transporters.

Setting [1] is: Caco-2 monolayer, apical to basolateral, 90-minute incubation, read-out: Papp, A-B.
The mark [2] stands for this setting: Caco-2 monolayer, basolateral to apical, 90-minute incubation, read-out: Papp, B-A.
The mark [3] stands for this setting: Caco-2 monolayer, ER>2 indicates potential efflux transporter substrate, read-out: ER (efflux ratio).

For `CNc1nc(N)nc2c1ncn2[C@@H]1O[C@H](COC(=O)C(C)C)[C@@H](O)[C@@]1(C)F` [Compound 3, ((2R,3R,4R,5R)-5-(2-amino-6-(methylamino)-9H-purin-9-yl)-4-fluoro-3-hydroxy-4-methyltetrahydrofuran-2-yl)methyl isobutyrate], under “Caco-2”, the Papp A→B at 90 min is 1.8 ×10⁻⁶ cm/s, the Papp B→A at 90 min was determined as 3.5 ×10⁻⁶ cm/s and the efflux ratio at 90 min was 2.
`N#C[C@@]1(c2ccc3c(N)ncnn23)O[C@H](COP(=O)(O)OCCCCCCCCCCCCCCCC(=O)O)[C@@H](O)[C@H]1O` [Compound 8, 16-(((((2R,3S,4R,5R)-5-(4-aminopyrrolo[2,1-f][1,2,4]triazin-7-yl)-5-cyano-3,4-dihydroxytetrahydrofuran-2-yl)methoxy)(hydroxy)phosphoryl)oxy)hexadecanoic acid]: for the setting “Caco-2”, the Papp A→B at 90 min amounted to 0.2 ×10⁻⁶ cm/s, the Papp B→A at 90 min was found to be 0.5 ×10⁻⁶ cm/s and the efflux ratio at 90 min amounted to 2.4.
In the case of `CC(C)CC(=O)OC[C@H]1O[C@@](C#N)(c2ccc3c(N)ncnn23)[C@H](O)[C@@H]1O` [Compound 9, ((2R,3S,4R,5R)-5-(4-aminopyrrolo[2,1-f][1,2,4]triazin-7-yl)-5-cyano-3,4-dihydroxytetrahydrofuran-2-yl)methyl 3-methylbutanoate], under “Caco-2”, the Papp A→B at 90 min was 3 ×10⁻⁶ cm/s, the Papp B→A at 90 min worked out at 4.7 ×10⁻⁶ cm/s and the efflux ratio at 90 min is 1.6.
The corresponding values for `N#C[C@@]1(c2ccc3c(N)ncnn23)O[C@H](COC(=O)CC2CCCCC2)[C@@H](O)[C@H]1O` [Compound 10, ((2R,3S,4R,5R)-5-(4-aminopyrrolo[2,1-f][1,2,4]triazin-7-yl)-5-cyano-3,4-dihydroxytetrahydrofuran-2-yl)methyl 2-cyclohexylacetate] are 3 ×10⁻⁶ cm/s, 4.7 ×10⁻⁶ cm/s and 1.6.
Consider `CC(C)[C@H](N)C(=O)OC[C@H]1O[C@@](C#N)(c2ccc3c(N)ncnn23)[C@H](O)[C@@H]1O` [Compound 11, ((2R,3S,4R,5R)-5-(4-aminopyrrolo[2,1-f][1,2,4]triazin-7-yl)-5-cyano-3,4-dihydroxytetrahydrofuran-2-yl)methyl L-valinate], for which, for the setting “Caco-2”, the apical-to-basolateral permeability (Papp A→B) at 90 min was 0.4 ×10⁻⁶ cm/s, the Papp B→A at 90 min is 0.1 ×10⁻⁶ cm/s and the efflux ratio at 90 min was 0.4.
As to `N#C[C@@]1(c2ccc3c(N)ncnn23)O[C@H](COC(=O)Cc2ccccc2)[C@@H](O)[C@H]1O` [Compound 12, ((2R,3S,4R,5R)-5-(4-aminopyrrolo[2,1-f][1,2,4]triazin-7-yl)-5-cyano-3,4-dihydroxytetrahydrofuran-2-yl)methyl 2-phenylacetate], the Papp A→B at 90 min under setting [1] was determined as 3 ×10⁻⁶ cm/s. The Papp B→A at 90 min under setting [2] was determined as 8.9 ×10⁻⁶ cm/s. In addition, the efflux ratio at 90 min under setting [3] is 3.
For the molecule `CC(=O)OC[C@H]1O[C@@](C#N)(c2ccc3c(N)ncnn23)[C@H](O)[C@@H]1O` [Compound 13, ((2R,3S,4R,5R)-5-(4-aminopyrrolo[2,1-f][1,2,4]triazin-7-yl)-5-cyano-3,4-dihydroxytetrahydrofuran-2-yl)methyl acetate], under “Caco-2”, the Papp A→B at 90 min came to 0.2 ×10⁻⁶ cm/s, the Papp B→A at 90 min came to 0.6 ×10⁻⁶ cm/s and the efflux ratio at 90 min came out at 2.7.
For `CC(C)C(=O)OC[C@H]1O[C@@](C#N)(c2ccc3c(N)ncnn23)[C@H](O)[C@@H]1O` [Compound 14, ((2R,3S,4R,5R)-5-(4-aminopyrrolo[2,1-f][1,2,4]triazin-7-yl)-5-cyano-3,4-dihydroxytetrahydrofuran-2-yl)methyl isobutyrate], where the note is “Caco-2”, the Papp A→B at 90 min was 2.3 ×10⁻⁶ cm/s, the Papp B→A at 90 min worked out at 2.2 ×10⁻⁶ cm/s and the efflux ratio at 90 min is 1.
Consider `CCC(=O)OC[C@H]1O[C@@](C#N)(c2ccc3c(N)ncnn23)[C@H](O)[C@@H]1O` [Compound 15, ((2R,3S,4R,5R)-5-(4-aminopyrrolo[2,1-f][1,2,4]triazin-7-yl)-5-cyano-3,4-dihydroxytetrahydrofuran-2-yl)methyl propionate], for which the Papp A→B at 90 min under setting [1] was 2.9 ×10⁻⁶ cm/s. The Papp B→A at 90 min under setting [2] is 7 ×10⁻⁶ cm/s. The efflux ratio at 90 min under setting [3] was determined as 3.4.
Regarding `CC(C)CC(=O)OC[C@H]1O[C@@](C#N)(c2ccc3c(N)ncnn23)[C@H](O)[C@@H]1OC(=O)CC(C)C` [Compound 17, (2R,3S,4R,5R)-5-(4-aminopyrrolo[2,1-f][1,2,4]triazin-7-yl)-5-cyano-4-hydroxy-2-(((3-methylbutanoyl)oxy)methyl)tetrahydro furan-3-yl 3-methylbutanoate], where the note is “Caco-2”, the apical-to-basolateral permeability (Papp A→B) at 90 min is 15 ×10⁻⁶ cm/s, the Papp B→A at 90 min was determined as 21 ×10⁻⁶ cm/s and the efflux ratio at 90 min amounted to 1.4.
`CC(C)CC(=O)OC[C@H]1O[C@@](C#N)(c2ccc3c(N)ncnn23)[C@H](O)[C@@H]1OC(=O)CC1CCCCC1` [Compound 18, ((2R,3S,4R,5R)-5-(4-aminopyrrolo[2,1-f][1,2,4]triazin-7-yl)-5-cyano-3-(2-cyclohexylacetoxy)-4-hydroxytetrahydrofuran-2-yl)methyl 3-methylbutanoate]: under “Caco-2”, the Papp A→B at 90 min was determined as 16 ×10⁻⁶ cm/s, the Papp B→A at 90 min was 8.8 ×10⁻⁶ cm/s and the efflux ratio at 90 min was determined as 0.6.
In the case of `CC(C)CC(=O)OC[C@H]1O[C@@](C#N)(c2ccc3c(N)ncnn23)[C@H](O)[C@@H]1OC(=O)Cc1ccccc1` [Compound 20, ((2R,3S,4R,5R)-5-(4-aminopyrrolo[2,1-f][1,2,4]triazin-7-yl)-5-cyano-4-hydroxy-3-(2-phenylacetoxy)tetrahydrofuran-2-yl)methyl 3-methylbutanoate], the Papp A→B at 90 min under setting [1] came to 10 ×10⁻⁶ cm/s. Also, under setting [2], the Papp B→A at 90 min turned out to be 9.8 ×10⁻⁶ cm/s. Under setting [3], the efflux ratio at 90 min is 1.
Regarding `CC(C)CC(=O)OC[C@H]1O[C@@](C#N)(c2ccc3c(N)ncnn23)[C@H](O)[C@@H]1OC(=O)C(C)C` [Compound 22, ((2R,3S,4R,5R)-5-(4-aminopyrrolo[2,1-f][1,2,4]triazin-7-yl)-5-cyano-4-hydroxy-3-(isobutyryloxy)tetrahydrofuran-2-yl)methyl 3-methylbutanoate], under “Caco-2”, the Papp A→B at 90 min was 7 ×10⁻⁶ cm/s, the Papp B→A at 90 min was 10 ×10⁻⁶ cm/s and the efflux ratio at 90 min stood at 1.5.
For `CCC(=O)O[C@H]1[C@@H](O)[C@](C#N)(c2ccc3c(N)ncnn23)O[C@@H]1COC(=O)CC(C)C` [Compound 23, ((2R,3S,4R,5R)-5-(4-aminopyrrolo[2,1-f][1,2,4]triazin-7-yl)-5-cyano-4-hydroxy-3-(propionyloxy)tetrahydrofuran-2-yl)methyl 3-methylbutanoate], in that order: 6.3 ×10⁻⁶ cm/s, 8.1 ×10⁻⁶ cm/s and 1.3.
Turning to `CC(C)CC(=O)OC[C@H]1O[C@@](C#N)(c2ccc3c(N)ncnn23)[C@H](O)[C@@H]1OCOC(=O)C(C)(C)C` [Compound 24, ((2R,3S,4R,5R)-5-(4-aminopyrrolo[2,1-f][1,2,4]triazin-7-yl)-5-cyano-4-hydroxy-3-((pivaloyloxy)methoxy)tetrahydrofuran-2-yl)methyl 3-methylbutanoate], under “Caco-2”, the Papp A→B at 90 min was 8.1 ×10⁻⁶ cm/s, the Papp B→A at 90 min was determined as 3.6 ×10⁻⁶ cm/s and the efflux ratio at 90 min worked out at 0.44.
For `CC(C)CC(=O)O[C@H]1[C@@H](O)[C@](C#N)(c2ccc3c(N)ncnn23)O[C@@H]1COC(=O)CC1CCCCC1` [Compound 25, (2R,3S,4R,5R)-5-(4-aminopyrrolo[2,1-f][1,2,4]triazin-7-yl)-5-cyano-2-((2-cyclohexylacetoxy)methyl)-4-hydroxytetrahydrofuran-3-yl 3-methylbutanoate], where the note is “Caco-2”, the Papp A→B at 90 min was 56 ×10⁻⁶ cm/s, the Papp B→A at 90 min was 42 ×10⁻⁶ cm/s and the efflux ratio at 90 min was 0.7.
For `CC(C)[C@H](N)C(=O)O[C@H]1[C@@H](O)[C@](C#N)(c2ccc3c(N)ncnn23)O[C@@H]1COC(=O)CC1CCCCC1` [Compound 27, (2R,3S,4R,5R)-5-{4-aminopyrrolo[2,1-f][1,2,4]triazin-7-yl}-5-cyano-2-{[(2-cyclohexylacetyl)oxy]methyl}-4-hydroxyoxolan-3-yl (2S)-2-amino-3-methylbutanoate], where the note is “Caco-2”, the Papp A→B at 90 min came out at 0.1 ×10⁻⁶ cm/s, the Papp B→A at 90 min stood at 9.9 ×10⁻⁶ cm/s and the efflux ratio at 90 min worked out at 100.
